Where a SMILES comes first, the peptide text is derived from it. [ ]: non-standard residue; d: D form. Cit = NC(=O)NCCC[C@H](N)C(=O)O
Key:
Format in all cases: in vivo, mouse
[1] = tested on: B16 HHDII/iDP4 tumour cells; conditions: immunised tumour bearing mice
Procedure: (§1) HLA-DR4 mice (Taconic, USA) and the HHDII/HLA-DP4 transgenic strain of mouse as described in patent WO2013/017545 A1 (EMMA repository, France) were used, aged between 8 and 12 weeks, and cared for by the staff at Nottingham Trent University. All work was carried out under a Home Office project licence. Peptides were dissolved in 10% dimethylformamide to 1 mg/mL and then emulsified (a series of dilutions) with the adjuvant CpG and MPLA 6 µg/mouse of each (Invivogen, UK). Peptides (25 µg/mouse) were injected subcutaneously at the base of the tail.
For tumour challenge experiments, mice were challenged with 1×10^5 B16 HHDII/iDP4, B16F1HHDIIMHCIIKO or B16 HHDII/PAD2KOcDP4 cells subcutaneously on the right flank 3 days before primary immunisation (unless stated otherwise) and then immunised as described above. Tumour growth was monitored at 3-4 days intervals and mice humanely euthanised once tumour reached ≥10 mm in diameter.
The inventors had already established by Western blotting that the melanoma B16F1 cell lines constitutively express NPM and in vitro citrullination of NPM generates citrulline at position 277 (FIG. 5A and B). Next, the anti-tumour effect of NPM 266-285 cit peptide immunisation was assessed in vivo. The effect of immunisation with NPM 266-285 (cit and wt) on the growth of the mouse B16 melanoma cell line transfected with IFNy inducible human DP4 (iDP4) was assessed. […]

[2] = tested on: splenocytes of HHDII/DP4 transgenic mice; assay: Ex vivo IFNy ELISpot on splenocytes after peptide immunisation, HHDII/DP4 mice; conditions: for IFNy immune response to peptide: HHDII/DP4 mice immunised with peptide pools, 25 µg each + CpG/MPLA, weekly x3, vs media only
Procedure: as §1
(§2) ELISpot assays were performed using murine IFNy capture and detection reagents according to the manufacturer’s instructions (Mabtech, Sweden). In brief, anti-IFNʏ antibody was coated onto wells of a 96-well Immobilin-P plate. Synthetic peptides (at a variety of concentrations) and 5×10^5 per well splenocytes were added to the wells of the plate in triplicate. LPS at 5 µg/mL was used as a positive control. Peptide pulsed target cells were added where relevant at 5×10^4 per well in triplicate and plates incubated for 40 hours at 37° C. After incubation, captured IFNy was detected by a biotinylated anti-IFNʏ antibody and developed with a streptavidin alkaline phosphatase and chromogenic substrate. […] For blocking studies, anti-CD4 blocking antibody (RPA-T4) and anti-CD8 blocking antibody (2.43) from Bioxcell were used at 20 µg/mL. Spots were analysed and counted using an automated plate reader (Cellular Technologies Ltd).
(§3) Screening was performed to identify potential citrullinated NPM epitopes that could generate an immune response in mice. Mice were immunised with pools of 4-6 human citrullinated peptides. […] Each pool was administered subcutaneously as a single immunisation given once a week for three weeks. Each peptide pool contained 25 µg of each peptide in combination with CpG/MPLA as an adjuvant. Mice were culled 7 days after the third immunisation, the immune response to each peptide within the immunising pool were assessed by ex vivo IFNy ELISpot (FIG. 2). We have previously shown that citrullinated peptides can induce responses in the transgenic DR4 mouse strain. Given that different mouse strains have different MHC repertoires, two different transgenic strains (DR4 and DP4) were used for screening.
The core epitope was confirmed by immunising mice once weekly for three weeks with 25 µg of the NPM 261-280 cit or 266-285 cit peptide. HHDII/DP4 mice were immunised with the individual peptides whereas HLA-DR4 mice were immunised with a combination of NPM 261-280 cit and 266-285 cit, all given with CpG/MPLA. Mice were culled 7 days after the third immunisation.
To determine if the immune response to the NPM 266-285 peptide is specific to the citrullinated peptide and not the wild type (wt) version, mice were immunised with NPM 266-285 cit or NPM 266-285 wt peptides. HHDII/DP4 mice received 25 µg peptide (NPM 266-285 cit or NPM 266-285 wt) subcutaneously once a week for three weeks. Mice were culled 7 days after the third immunisation, the immune response to each peptide was assessed by ex vivo ELISpot (FIGS. 4A and 4B). […] In contrast, strong IFNy responses were detected in mice immunised with NPM 266-285 cit, these responses were significant when compared to the response to the NPM 266-285 wt peptide (p=0.0002) and the control (p=<0.0001). […]

[3] = tested on: T cell response in HLA-DR4 and HHDII/DP4 transgenic mice; assay: Screening of citrullinated NPM peptides for T cell (IFNy) responses in HLA-DR4 and HHDII/DP4 transgenic mice; conditions: for T cell response: citrullinated NPM peptides, HLA-DR4 and HHDII/DP4 transgenic mice, IFNy ELISpot
Procedure: as §1, §2
T cell responses to tumour associated epitopes are often weak or non-existent due to tolerance and T cell deletion within the thymus. The citrullinated NPM peptides were screened in HLA-DR4 and HHDII/DP4 transgenic mice for their ability to stimulate IFNy responses. Every peptide containing an arginine was selected and the arginine residue was replaced with citrulline (cit).
as §3

[4] = tested on: splenocytes of HLA-DR4 transgenic mice; assay: Ex vivo IFNy ELISpot on splenocytes after peptide immunisation, HLA-DR4 mice
Procedure: as §1
ELISpot assays were performed using murine IFNy capture and detection reagents according to the manufacturer’s instructions (Mabtech, Sweden). In brief, anti-IFNʏ antibody was coated onto wells of a 96-well Immobilin-P plate. […] After incubation, captured IFNy was detected by a biotinylated anti-IFNʏ antibody and developed with a streptavidin alkaline phosphatase and chromogenic substrate. […] Spots were analysed and counted using an automated plate reader (Cellular Technologies Ltd).
Screening was performed to identify potential citrullinated NPM epitopes that could generate an immune response in mice. […] Mice were culled 7 days after the third immunisation, the immune response to each peptide within the immunising pool were assessed by ex vivo IFNy ELISpot (FIG. 2). […]

CC[C@H](C)[C@H](NC(=O)[C@H](C)NC(=O)[C@H](CCC(=O)O)NC(=O)[C@H](CCC(N)=O)NC(=O)[C@H](CC(=O)O)NC(=O)[C@@H](NC(=O)[C@H](CCSC)NC(=O)[C@H](CCCNC(N)=O)NC(=O)[C@H](Cc1ccccc1)NC(=O)[C@H](CS)NC(=O)[C@H](CC(N)=O)NC(=O)[C@H](CCCCN)NC(=O)[C@@H](NC(=O)[C@H](Cc1ccc(O)cc1)NC(=O)[C@H](CC(N)=O)NC(=O)[C@@H](NC(=O)[C@H](Cc1ccccc1)NC(=O)[C@H](CCCCN)NC(=O)[C@H](C)N)[C@@H](C)CC)C(C)C)[C@@H](C)O)C(=O)N[C@@H](CCC(N)=O)C(=O)O [NPM 266-285 cit, AKFINYVKNCF-cit-MTDQEAIQ] (H-AKFINYVKNCF[Cit]MTDQEAIQ-OH)
Associated toxicity [1]: no associated toxicity

CC[C@H](C)[C@H](NC(=O)[C@H](C)NC(=O)[C@H](CCC(=O)O)NC(=O)[C@H](CCC(N)=O)NC(=O)[C@H](CC(=O)O)NC(=O)[C@@H](NC(=O)[C@H](CCSC)NC(=O)[C@H](CCCNC(=N)N)NC(=O)[C@H](Cc1ccccc1)NC(=O)[C@H](CS)NC(=O)[C@H](CC(N)=O)NC(=O)[C@H](CCCCN)NC(=O)[C@@H](NC(=O)[C@H](Cc1ccc(O)cc1)NC(=O)[C@H](CC(N)=O)NC(=O)[C@@H](NC(=O)[C@H](Cc1ccccc1)NC(=O)[C@H](CCCCN)NC(=O)[C@H](C)N)[C@@H](C)CC)C(C)C)[C@@H](C)O)C(=O)N[C@@H](CCC(N)=O)C(=O)O [NPM 266-285 wt, reference compound] (H-AKFINYVKNCFRMTDQEAIQ-OH)
Associated toxicity [1]: no associated toxicity

AEEKAPVKKSI-cit-DTPAKNAQ [186-205]
IFNy immune response to peptide [2]: failed to induce an immune response | T cell response [3]: No

AKFINYVKNCF-cit-MTD [NPM 266-280 cit]
Response to core peptide compared with NPM 261-280 cit or NPM 266-285 cit ([2]; HHDII/DP4 transgenic mice, IFNy ELISpot): no significant difference | Response to core peptide compared with NPM 266-285 cit [4]: significant difference | T cell response [3]: Yes

DENEHQLSL-cit-TVSLGAGAKD [36-55]
T cell response [3]: No

DMDMSPL-cit-PQNYLFGCELKA [6-25]
T cell response [3]: No

EDEEEEDVKLLSISGK-cit-SAP [126-145]
T cell response [3]: No

EDVKLLSISGK-cit-SAPGGGSK [131-150]
T cell response [3]: No

F-cit-MTDQEAIQDLWQWcitKSL [276-294]
T cell response [3]: No

FDDEEAEEKAPVKKSI-cit-DTP [181-200]
T cell response [3]: No

FKVDNDENEHQLSL-cit-TVSLG [31-50]
T cell response [3]: No

GFETPPVVL-cit-LKCGSGPVH [91-110]
T cell response [3]: No

GKDSKPSSTP-cit-SKGQESFKK [211-230]
T cell response [3]: No

KSNQNGKDSKPSSTP-cit-SKGQ [206-225]
T cell response [3]: No

LPKVEAKFINYVKNCF-cit-MTD [NPM 261-280 cit]
IFNy immune response to peptide [2]: significant immune responses | IFNy response to peptide ([2]; core epitope study, HHDII/DP4 mice immunised with individual peptide 25 µg weekly x3 + CpG/MPLA): Significant IFNʏ responses | Frequency of IFNy responses ([3]; HHDII/DP4 and HLA-DR4 mice): high frequency IFNy responses | T cell response [3]: Yes

LSISGK-cit-SAPGGGSKVPQKK [136-155]
T cell response [3]: No

MEDSMDMDMSPL-cit-PQNYLFG [1-20]
T cell response [3]: No

PPVVL-cit-LKCGSGPVHISGQH [96-115]
T cell response [3]: No

PSSTP-cit-SKGQESFKKQEKTP [216-235]
T cell response [3]: No

PVKKSI-cit-DTPAKNAQKSNQN [191-210]
IFNy immune response to peptide [2]: failed to induce an immune response | T cell response [3]: No

QLSL-cit-TVSLGAGAKDELHIV [41-60]
T cell response [3]: No

TVSLGGFEITPPVVL-cit-LKCG [86-105]
T cell response [3]: No

YVKNCF-cit-MTDQEAI QDLWQW [271-290]
T cell response [3]: No

Reference: patent US20230173047A1, “CITRULLINATED NUCLEOPHOSMIN PEPTIDES AS CANCER VACCINES” (SCANCELL LIMITED, priority 2020, published 2023)
